From patent US8569511B2, “Substituted 3-(1H-benzo[d]imidazol-2-yl)-1H-indazole analogs as inhibitors of the PDK1 kinase” (University of Utah Research Foundation, priority 2011, dated 2013) come the findings set out here.

Where two headings read alike, the source gives them in different places.

In one data set the target is PDK1 (Homo sapiens (Human), UniProt O15530). The data set is described as follows: Time resolved-FRET LanthaScreen Kinase Binding Assay. An excerpt:
Binding of the tracer to the kinase is detected using a europium-labeled anti-tag antibody, which binds to the kinase of interest. […] Binding of an inhibitor to the kinase competes for binding with the tracer, resulting in a loss of FRET.
Activity of compounds was routinely assessed using a secondary assay as described herein. The secondary assay was a time resolved-FRET LanthaScreen Kinase Binding Assay (Invitrogen Corporation, Carlsbad, Calif.). This assay evaluates the ability of the test compound to compete with a fluorescently-labeled tracer molecule to bind in the ATP pocket of a kinase. The assay signal is generated when a Europium-conjugated anti-His tag antibody (Invitrogen) bound to the His-tagged kinase produces a TR-FRET signal with the tracer molecule bound in the ATP pocket of the kinase. […] After 60 minutes of incubation at room temperature, the TR-FRET signal was measured on an EnVision microplate reader.
(§1) IC50 values are determined using GraphPad Prism 5 software. The data were entered as an X-Y plot into the software as percent inhibition for each concentration of the drug. The concentration values of the drug were log transformed and the nonlinear regression was carried out using the “sigmoidal dose-response (variable slope)” option within the GraphPad software to model the data and calculate IC50 values.

In a further data set the test system is HEC-1A cells. The data set is described as follows: Cell viability assay (ATP-lite). It is filed as cell-based. As to conditions: for IC50: Homo sapiens. The procedure:
(§2) AN3-CA (PTEN-deficient), RL95-2 (PTEN-deficient), and HEC-1A (PTEN-wild type) cells were plated in 45 μl of RPMI-1640 media supplemented with 10% FBS and 1% Pen/Strep at a density of 1000 cells per well in white 384-well plates. Cells were allowed to attach by incubation overnight at 37° C. and 5% CO2. Test compounds were diluted to 10× concentrations in RPMI-1640 media (containing 3% DMSO) and 5 μl 1 of these dilutions were added in triplicate to the appropriate wells containing the cells. The plates containing the drug-treated cells and appropriate controls were incubated for 96 hours. At the end of the incubation, 40 μl of ATP-lite (PerkinElmer, Inc., Waltham, Massachussetts) reagent were added to each well and luminescence signal was measured on an EnVision microplate reader.
(§3) Alternatively, AN3-CA, RL95-2, HEC-1A endometrial cancer cell lines were plated at a density of 2000 cells per well in a 96 well culture plate in 45 μl of cell culture media and incubated overnight. […] Vehicle treated controls were also included and each condition was applied in quadruplicate. Following 96 hours of incubation, 35 μL of ATP-lite (PerkinElmer) reagent was added each well and allowed to react for 10 minutes. Plate was read on a Envision 2104 MultiLabel reader (PerkinElmer).
as §1

A further data set deals with RL95-2 cells. The data set is described as follows: Cell viability assay (ATP-lite). It counts as cell-based. Particulars: for IC50: Homo sapiens. The procedure: as §2, §3, §1
The next data set concerns SK-OV-3. The data set is described as follows: Cell viability assay, cancer cell line panel. As to conditions: Homo sapiens, mutation PIK3CA. It counts as cell-based.
A further data set relates to HCT-116. The data set is described as follows: Cell viability assay, cancer cell line panel. It is filed as cell-based. Particulars: Homo sapiens, mutation KRAS, PIK3CA.
Another data set deals with BT549. The data set is described as follows: Cell viability assay, cancer cell line panel. It counts as cell-based. As to conditions: Homo sapiens, BT-549; mutation PTEN.
Another data set deals with MCF-7. The data set is described as follows: Cell viability assay, cancer cell line panel. It counts as cell-based. As to conditions: Homo sapiens, MCF7; mutation PIK3CA.
Another data set relates to H1975. The data set is described as follows: Cell viability assay, cancer cell line panel. It counts as cell-based. As to conditions: Homo sapiens, NCI-H1975; mutation PIK3CA.
The test system of data set [1] is 82 cell lines representing more than 20 tumor types. The data set is described as follows: Screen of a further 82 cell lines (8-point serial dilution). It is filed as cell-based. An excerpt:
In order to determine if there were additional cell lines that were profoundly sensitive to this compound, a further 82 cell lines were screened which represented more than 20 different tumor types of origin. […] Without wishing to bound by a particular theory, these three additional cell lines are all acute myeloid leukemic lines that have different activating mutations in oncogenes that have been associated with elevated PI3K activity. MV4-11 has the FLT3 internal tandem duplication (ITD) and Kasumi-1 has amplified and mutated c-kit as well as the AML-ETO gene fusion. […] All three lines have wild-type PTEN but have shown to express very low levels of PTEN protein, which makes them functionally deficient for PTEN.

Data set [2] in a line: Pharmacokinetics in mice (iv and po). It is filed as in vivo. Particulars: for Vd: read-out: Vss. The procedure:
Pharmacokinetic parameters were determined by dosing mice by oral (“po”) and intravenous (“iv”) administration of two representative disclosed compounds.
The vehicle was 1% DMSO, 10% ethanol, 35% PEG 400, and the balance H2O. Blood was collected (about 50 μl per individual animal) into heparin-containing collection tubes, and cells were removed by centrifugation. The concentration of compound was determined at the indicated time points for each sample using mass spectrometry. […] PK parameters were calculated using WinNonLin (Pharsight Products, Saint Louis, Mo.). […] The level detected at 0.08 hr was 9 ng/ml±5.0 ng/ml.
Vehicle, sample collection and analysis is as described above.

A further data set relates to AN3-CA cells. The data set is described as follows: Mouse subcutaneous xenograft tumor model, tumor volume. Particulars: 50 mg/kg IP, daily Monday through Friday for two weeks. It is filed as in vivo, athymic nude mice. The procedure: (§4) The in vivo effects of compounds were determined in a mouse subcutaneous xenograft tumor model wherein AN3-CA cells were implanted subcutaneously into the hind flank of athymic nude mice. Briefly, seven-week-old mice were injected with 2×10^6 AN3-CA cells on the right hind flank. […] The vehicle for these studies was 20% DMSO, 20% cremophor, and 60% water. The test compound was administered on daily schedule (Monday through Friday) for two weeks at a concentration of 50 mg/kg by intraperitoneal (“IP”) injection. The mice were sacrificed and the tumors were excised for western blot analysis. Tumor volume was determined using the formula L×W2×0.5, where L is the longest length, and W is the shortest length. Tumor volume and body weight was measured twice a week.
(§5) The study was carried out as described above for 2,2-difluoro-N-(3-(5-morpholino-1H-benzo[d]imidazol-2-yl)-1H-indazol-5-yl)cyclopropanecarboxamide, except that the test compound used was 2,2-difluoro-N-(3-(5-(2-methylmorpholino)-1H-benzo[d]imidazol-2-yl)-1H-indazol-5-yl)cyclopropanecarboxamide. Data are shown in FIGS. 10A and 10B for the effect of the compound on tumor volume and body weight, respectively.

A short description of data set [3]: Mouse xenograft study, body weight. It counts as in vivo, athymic nude mice. As to conditions: 50 mg/kg IP, daily Monday through Friday for two weeks. The procedure: as §4, §5
The mark [4] stands for this setting: TR-FRET Lanthascreen Kinase Binding Assay, read-out: PDK1 Kinase assays (IC50, μM) Binding Assay.
[5] abbreviates: tested in triplicate, FIG. 5, read-out: IC50 in PDK1 time resolved-FRET LanthaScreen Kinase Binding Assay.
Setting [6] is: mouse, plasma, po (Table VIII, dose not given).

Chain of PDK1 (O15530 whole entry): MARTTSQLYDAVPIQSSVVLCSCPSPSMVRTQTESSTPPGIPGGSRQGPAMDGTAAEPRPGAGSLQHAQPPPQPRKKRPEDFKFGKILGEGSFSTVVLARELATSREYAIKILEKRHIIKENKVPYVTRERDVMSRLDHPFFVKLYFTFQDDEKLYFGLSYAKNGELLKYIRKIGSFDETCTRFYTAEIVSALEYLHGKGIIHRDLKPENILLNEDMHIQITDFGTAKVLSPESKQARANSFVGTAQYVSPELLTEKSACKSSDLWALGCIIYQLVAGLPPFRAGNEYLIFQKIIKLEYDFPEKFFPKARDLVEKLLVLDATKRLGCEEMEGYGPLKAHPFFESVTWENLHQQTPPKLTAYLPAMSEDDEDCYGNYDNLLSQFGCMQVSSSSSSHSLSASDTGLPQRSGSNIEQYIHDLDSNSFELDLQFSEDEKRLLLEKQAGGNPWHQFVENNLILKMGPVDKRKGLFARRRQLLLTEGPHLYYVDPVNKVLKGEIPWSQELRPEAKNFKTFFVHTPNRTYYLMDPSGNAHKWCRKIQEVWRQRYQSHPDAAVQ

`O=C(Nc1ccc2[nH]nc(-c3nc4ccc(N5CCOCC5)cc4[nH]3)c2c1)C1CC1(F)F` (stereo not shown) [Compound 1, 2,2-difluoro-N-(3-(5-morpholino-1H-benzo[d]imidazol-2-yl)-1H-indazol-5-yl)cyclopropanecarboxamide]: the IC50 was 0.08 µM on PDK1 (setting [4]); 0.08 µM at PDK1 (setting [5]); 3760 nM in the data set on HEC-1A cells (HEC-1-A, Table VI panel, mutation KRAS, PIK3CA, read-out: IC50 cell viability, Hec-1A); 3780 nM with HEC-1A cells (HEC-1A (PTEN-wild type), read-out: Cell Viability IC50 HEC-1A); 654 nM with RL95-2 cells (RL95-2, Table VI panel, mutation PTEN, HRAS, read-out: IC50 cell viability, RL95-2); 479 nM in the data set with RL95-2 cells (RL95-2, read-out: IC50 cell viability, RL-95-A). In addition, the IC50 with RL95-2 cells (RL95-2 (PTEN mutation), read-out: Cell Viability IC50 RL95-2) is 479 nM; with SK-OV-3 it was 1890 nM; with HCT-116, 2520 nM; in the data set with BT549, 3160 nM; with MCF-7, 8790 nM; in the data set on H1975 it was 9860 nM. For the same compound, the IC50 in data set [1] (68 of the cell lines, 10 μM down to 3 nM, read-out: IC50 in 68 of the 82 cell lines) was over 1000 nM; in data set [1] (read-out: IC50 in 5 cell lines), under 100 nM. For the same compound, the “Potency in cell viability assay, HEC-1A (in words)” value with HEC-1A cells (FIG. 6) is “relatively inactive”. Moreover, in the data set with RL95-2 cells (FIG. 6), the “Potency in cell viability assay, RL-95-2 (in words)” value was “moderately potent”. In addition, the “IC50 in 9 of the 82 cell lines” value in data set [1] (9 cell lines) was “hundreds of nano-molar range”. In addition, the AUC(0-t) in data set [2] (mouse, plasma, iv, 5.0 mg/kg) amounted to 516 ng·h/mL. The Cmax in data set [2] (mouse, plasma, iv, 5.0 mg/kg) was 1840 ng/mL; in data set [2] (setting [6]), 9 ng/mL. The Tmax was 4.8 min in [2] (mouse, plasma, iv, 5.0 mg/kg) and 15 min in data set [2] (setting [6]). The compound further displayed a clearance in data set [2] (mouse, plasma, iv, 5.0 mg/kg) of 161 mL/min/kg. Also, the half-life in [2] (mouse, plasma, iv, 5.0 mg/kg) was 24 min. Also, the Vd in data set [2] (mouse, plasma, iv, 5.0 mg/kg) came to 1.6 L/kg. Also, the concentration at 0.08 hr in data set [2] (mouse, plasma, po, at 0.08 hr, read-out: Level detected after oral administration) was 9 ng/mL. Further, in data set [2] (po, after 0.08 hr), the “Level after oral administration (in words)” value was “below the limit of detection”. Moreover, the “Effect on tumor burden (tumor volume) compared to the vehicle control” value in the data set with AN3-CA cells was “modest effect on tumor burden”. Besides, the “Effect on body weight” value in [3] was “did not appear to cause any body weight loss”.

For `CC1CN(c2ccc3nc(-c4n[nH]c5ccc(NC(=O)C6CC6(F)F)cc45)[nH]c3c2)CCO1` (stereo not shown) [Compound 2, 2,2-difluoro-N-(3-(5-(2-methylmorpholino)-1H-benzo[d]imidazol-2-yl)-1H-indazol-5-yl)cyclopropanecarboxamide], the IC50 on PDK1 (setting [4]) stood at 0.094 µM. Also, the IC50 at PDK1 (setting [5]) is 0.094 µM. Moreover, in [2] (mouse, plasma, iv, 5.0 mg/kg), the AUC(0-t) was found to be 1280 ng·h/mL, the Cmax stood at 4530 ng/mL, the Tmax was 4.8 min and the clearance amounted to 65 mL/min/kg. In addition, in [2] (mouse, plasma, iv, 5.0 mg/kg), the half-life was 24 min and the Vd came to 0.63 L/kg. For the same compound, in data set [2] (mouse, plasma, po, 30 mg/kg), the AUC(0-t) came to 244 ng·h/mL, the highest level (Cmax) was 53 ng/mL, the Tmax turned out to be 15 min and the bioavailability turned out to be 19%. Further, the “Effect on tumor burden (tumor volume) compared to the vehicle control” value with AN3-CA cells was “profound and significant effect on tumor burden”. Further, in [3], the “Effect on body weight” value is listed as “did not appear to cause any body weight loss”.
